Experimental data published in patent US4110327A, “2,3 Diketo-piperazinocarbonylamino alkanoic acids and derivatives” (Toyama Chemical Co., Ltd., priority 1974, dated 1978).
≈ marks a conversion by molar mass, not a printed value.

Experiments:
Format in all cases: cell-based
Escherichia coli NIHJ = test: MIC against standard strain, plate method; settings: unit assumed
Description: (§1) The minimum inhibitory concentrations (MIC) was determined by the plate method disclosed in "Chemotherapy" (Japan), Vol. 16, (1968), pages 98 - 99. The culture medium used was a Heart infusion agar (pH 7.4). The number of the cells per plate used in the inoculum as 10^4 (10^6 cells/ml).

Klebsiella pneumoniae [1] = test: MIC against standard strain, plate method; settings: unit assumed
Description: as §1

Proteus vulgaris 3027 = test: MIC against standard strain, plate method; settings: Proteus vulgaris 3027, standard strain; unit assumed
Description: as §1

[2] = test system: Pseudomonas aeruginosa I.F.O.; test: MIC against standard strain, plate method; settings: unit assumed
Description: as §1

[3] = test system: Staphylococcus aureus 209p; test: MIC against standard strain, plate method; settings: unit assumed
Description: as §1

Pseudomonas aeruginosa = test: MIC against clinical isolates; settings: unit assumed
Klebsiella pneumoniae [4] = test: MIC against clinical isolates; settings: unit assumed
Staphylococcus aureus = test: MIC against clinical isolates; settings: unit assumed
Escherichia coli = test: MIC against clinical isolates; settings: unit assumed
Shigella flexneri = test: MIC against clinical isolates; settings: unit assumed
Description: as §1
(§2) MIC was determined in the same manner as in the preceding paragraph (1).

Shigella sonnei = test: MIC against clinical isolates; settings: unit assumed
Description: as §1, §2

Salmonella typhi = test: MIC against clinical isolates; settings: unit assumed
Salmonella typhi-murium = test: MIC against clinical isolates; settings: unit assumed

Row | SMILES | MIC (Escherichia coli NIHJ) [µg/mL] | MIC (Klebsiella pneumoniae [1]) [µg/mL] | MIC (Proteus vulgaris 3027) [µg/mL] | MIC [2] [µg/mL] | MIC [3] [µg/mL] | MIC (Pseudomonas aeruginosa; clinical isolate GN 82) [µg/mL] | MIC (Pseudomonas aeruginosa; clinical isolate GN 163) [µg/mL] | MIC (Pseudomonas aeruginosa; clinical isolate GN 221) [µg/mL] | MIC (Pseudomonas aeruginosa; clinical isolate GN 376) [µg/mL] | MIC (Pseudomonas aeruginosa; clinical isolate GN 383) [µg/mL] | MIC (Pseudomonas aeruginosa; clinical isolate GN 1035) [µg/mL] | MIC (Pseudomonas aeruginosa; clinical isolate GN 1091) [µg/mL] | MIC (Pseudomonas aeruginosa; clinical isolate GN 2565) [µg/mL] | MIC (Pseudomonas aeruginosa; clinical isolate GN 2987) [µg/mL] | MIC (Pseudomonas aeruginosa; clinical isolate S-1) [µg/mL] | MIC (Pseudomonas aeruginosa; clinical isolate S-2) [µg/mL] | MIC (Pseudomonas aeruginosa; clinical isolate S-3) [µg/mL] | MIC (Pseudomonas aeruginosa; clinical isolate S-4) [µg/mL] | MIC (Klebsiella pneumoniae [4]; clinical isolate GN 917) [µg/mL] | MIC (Klebsiella pneumoniae [4]; clinical isolate GN 4081) [µg/mL] | other results
1 | CCN1CCN(C(=O)N[C@@H](C(=O)N[C@@H]2C(=O)N3[C@@H]2SC(C)(C)[C@@H]3C(=O)O)c2ccccc2)CC1=O [compound 19] | < 1.57 | 50 (≈ 99.3 µM) | 3.13 (≈ 6.22 µM) | 12.5 (≈ 24.8 µM) | < 1.57 | 12.5 (≈ 24.8 µM) | 12.5 (≈ 24.8 µM) | 12.5 (≈ 24.8 µM) | 12.5 (≈ 24.8 µM) | 12.5 (≈ 24.8 µM) | 100 (≈ 199 µM) | 12.5 (≈ 24.8 µM) | 50 (≈ 99.3 µM) | 12.5 (≈ 24.8 µM) | 50 (≈ 99.3 µM) | 50 (≈ 99.3 µM) | 50 (≈ 99.3 µM) | 50 (≈ 99.3 µM) | 50 (≈ 99.3 µM) | > 200 | MIC (Pseudomonas aeruginosa; clinical isolate GN (number not given; Table 5-3)): 25 µg/mL (≈ 49.6 µM); MIC (Klebsiella pneumoniae [4]; clinical isolate GN 3850): 100 µg/mL (≈ 199 µM); MIC (Klebsiella pneumoniae [4]; clinical isolate GN 4117): > 200 µg/mL
2 | Cc1nnc(SCC2=C(C(=O)O)N3C(=O)[C@@H](NC(=O)Cn4cnnn4)[C@H]3SC2)s1 [Sodium Cephazolin, SodiumCephazolin, reference compound] | < 1.57 | 200 | 1.57 | > 200 | < 1.57 | > 200 | > 200 | > 200 | > 200 | > 200 | > 200 | > 200 | > 200 | > 200 | > 200 | > 200 | > 200 | > 200 | 1.56 | 3.13 | MIC (Staphylococcus aureus; clinical isolate F-1): 0.78 µg/mL; MIC (Staphylococcus aureus; clinical isolate F-2): < 0.4 µg/mL; MIC (Staphylococcus aureus; clinical isolate F-3): < 0.4 µg/mL; MIC (Staphylococcus aureus; clinical isolate F-4): < 0.4 µg/mL; MIC (Staphylococcus aureus; clinical isolate F-5): 0.78 µg/mL; MIC (Staphylococcus aureus; clinical isolate MS 8588): < 0.4 µg/mL; MIC (Staphylococcus aureus; clinical isolate MS 8596): < 0.4 µg/mL; MIC (Staphylococcus aureus; clinical isolate MS 8619): < 0.4 µg/mL; MIC (Staphylococcus aureus; clinical isolate MS 8684): < 0.4 µg/mL; MIC (Staphylococcus aureus; clinical isolate MS 8713): < 0.4 µg/mL; MIC (Escherichia coli; clinical isolate GN 3435): 1.56 µg/mL; MIC (Escherichia coli; clinical isolate GN 3452): 1.56 µg/mL; MIC (Escherichia coli; clinical isolate GN 3481): 1.56 µg/mL; MIC (Escherichia coli; clinical isolate GN 3611): 25 µg/mL; MIC (Escherichia coli; clinical isolate K-1): 1.56 µg/mL; MIC (Escherichia coli; clinical isolate K-2): 1.56 µg/mL; MIC (Escherichia coli; clinical isolate K-3): > 200 µg/mL; MIC (Escherichia coli; clinical isolate K-4): 3.13 µg/mL; MIC (Pseudomonas aeruginosa; clinical isolate GN 244): > 200 µg/mL; MIC (Klebsiella pneumoniae [4]; clinical isolate GN 4117): 3.13 µg/mL
3 | CC1(C)S[C@@H]2[C@H](NC(=O)C(c3ccccc3)S(=O)(=O)O)C(=O)N2[C@H]1C(=O)O (some centres unmarked) [Sodium Sulbenicillum, reference compound] |  |  |  |  |  |  |  |  |  |  |  |  |  |  |  |  |  |  |  |  | MIC (Shigella flexneri; clinical isolate JS 11215): > 200 µg/mL; MIC (Shigella flexneri; clinical isolate JS 11839): 12.5 µg/mL; MIC (Shigella sonnei; clinical isolate JS 11232): > 200 µg/mL; MIC (Shigella sonnei; clinical isolate JS 11755): > 200 µg/mL; MIC (Salmonella typhi; clinical isolate SL 819): 6.25 µg/mL; MIC (Salmonella typhi; clinical isolate SL 2169): 1.57 µg/mL; MIC (Salmonella typhi-murium; clinical isolate SL 858): 25 µg/mL; MIC (Salmonella typhi-murium; clinical isolate SL 2136): > 200 µg/mL
4 | CCN1CCN(C(=O)NC(C(=O)NC2C(=O)N3C(C(=O)O)=C(CSc4nnnn4C)CSC23)c2ccccc2)C(=O)C1=O (centres unmarked) [compound 69] | < 0.79 | < 0.4 | < 0.79 | 12.5 (≈ 19.9 µM) | < 0.79 | 12.5 (≈ 19.9 µM) | 12.5 (≈ 19.9 µM) | 6.25 (≈ 9.93 µM) | 12.5 (≈ 19.9 µM) | 25 (≈ 39.7 µM) | 50 (≈ 79.4 µM) | 12.5 (≈ 19.9 µM) | 50 (≈ 79.4 µM) | 12.5 (≈ 19.9 µM) | 25 (≈ 39.7 µM) | 25 (≈ 39.7 µM) | 50 (≈ 79.4 µM) | 50 (≈ 79.4 µM) | 0.78 (≈ 1.24 µM) |  | MIC (Staphylococcus aureus; clinical isolate F-1): 3.13 µg/mL (≈ 4.97 µM); MIC (Staphylococcus aureus; clinical isolate F-2): 1.56 µg/mL (≈ 2.48 µM); MIC (Staphylococcus aureus; clinical isolate F-3): 0.78 µg/mL (≈ 1.24 µM); MIC (Staphylococcus aureus; clinical isolate F-4): 3.13 µg/mL (≈ 4.97 µM); MIC (Staphylococcus aureus; clinical isolate F-5): 0.78 µg/mL (≈ 1.24 µM); MIC (Staphylococcus aureus; clinical isolate MS 8588): 1.56 µg/mL (≈ 2.48 µM); MIC (Staphylococcus aureus; clinical isolate MS 8596): 1.56 µg/mL (≈ 2.48 µM); MIC (Staphylococcus aureus; clinical isolate MS 8619): 0.78 µg/mL (≈ 1.24 µM); MIC (Staphylococcus aureus; clinical isolate MS 8684): 1.56 µg/mL (≈ 2.48 µM); MIC (Staphylococcus aureus; clinical isolate MS 8713): 1.56 µg/mL (≈ 2.48 µM); MIC (Pseudomonas aeruginosa; clinical isolate GN 244): 25 µg/mL (≈ 39.7 µM)
